Reference: patent US12491172B2, “Treatment of diabetes” (priority 2019, dated 2025)

Columns and labels:
Assay type in all cases: cell-based, mouse
HIF-1α = HIF-1α and GLUT1 protein levels in isolated pancreatic islets (immunoblotting); conditions: islets treated with GKA50 alone, 20 hours
[1] = system: isolated pancreatic islets; assay: Static batch incubation (insulin secretion) of isolated islets
[2] = system: isolated pancreatic islets; assay: Measurements of cytoplasmic free Ca2+-concentration in islets
HIF-1α target genes = assay: Gene expression of HIF-1α target genes in isolated islets (RT-qPCR)
[3] = system: isolated pancreatic islets; assay: Cellular hypoxia in isolated islets (pimonidazole adducts)
Description: For experiments using the hypoxic marker pimonidazole, islets were cultured overnight in RPMI 1640 with 11 mM glucose and fasted for 1 hour in RPMI 1640 with 5.5 mM glucose. Subsequently islets were moved to medium containing 5.5 mM, 11 mM or 22 mM glucose, either with or without the glucokinase activator 10 μM of the glucokinase activator GKA50 (Sigma), 50 μM nifedipine (Sigma) or 100 μM diaxozide (Sigma) as indicated (FIGS. 1A and B). Islets were cultured during 8 hours before lysis. During the last 2 hours pimonidazole (Hypoxyprobe, HPI, Inc) was added to the medium. The hypoxic sample were cultured under 8% O2 during the last 2 hours before the lysis.
Islets were sonicated in RIPA buffer (50 mM Tris-HCl pH7.4, 150 mM NaCl, 1% NP-40, 0.5% Na deoxycholate, 0.1% SDS, 1 mM EDTA, protease inhibitor mix (Complete-Mini, Roche), 0.5 mM phenylmethylsulfonyl fluoride (PMSF) and 0.5 mM dithiothreitol). Lysates were cleared by centrifugation for 30 min at 14.000 r.p.m., and proteins were separated by SDS-PAGE and blotted onto nitrocellulose membranes. […]

[4] = islets treated with GKA50 alone, 20 hours

Row | SMILES | HIF-1α stabilization and GLUT1 protein levels (HIF-1α) | basal insulin secretion ([1]; 3.3 mM glucose, after 20 hours treatment and 2 hours fasting) | insulin release at high glucose concentration ([1]; 16.7 mM glucose, after 20 hours treatment) | secretory index ([1]; GKA50-treated islets in absence (1.2) or presence (3.4) of the HIF-1α inhibitor) [fold] | insulin content ([1]; islets treated with GKA50 with or without PX-478) | speed of [Ca2+]i response to glucose ([2]; 20 μM GKA50 with or without 50 μM PX-478) | basal [Ca2+]i oscillations ([2]; 3 mM glucose, after 20 hours 20 μM GKA50 with or without 50 μM PX-478 and 2 hours fasting) | Gck mRNA level (HIF-1α target genes; islets treated with GKA50, compared to untreated islets) | gene expression of Glut1, Igfbp3, Hk2, Pgk1 and Pdk1 (HIF-1α target genes; [4]) | mRNA expression of Ldha and Bnip3 (HIF-1α target genes; [4]) | formation of pimonidazole adducts (cellular hypoxia) ([3]; isolated islets, 8 hours, 10 μM GKA50) | levels of pimonidazole adducts ([3]; islets treated with GKA50 in the presence of 50 μM nifedipine or 100 μM diaxozide)
1 | COC[C@H](C)Oc1cc(O[C@@H](C)Cc2ccccc2)cc(C(=O)Nc2ccc(C(=O)O)cn2)c1 [GKA50] | led to HIF-1α stabilization and increased GLUT1 protein levels | dose response-dependent increase in basal insulin secretion | without impacting on insulin release at high glucose concentration | 1.2 | no impact on insulin content | faster response to glucose | displayed [Ca^2+]i oscillations already under basal low glucose concentration | reduced | Induction | not induced | increase in the formation of pimonidazole adducts | 
2 | CC1=Nc2ccc(Cl)cc2S(=O)(=O)N1 [diaxozide] |  |  |  |  |  |  |  |  |  |  |  | no decrease in levels of pimonidazole adducts
